# Values quoted from earlier work, collected in patent publication US6689382B2, “Soft shell gelatin capsules containing non-steroidal anti-inflammatories” (priority 2002, dated 2004).
# Experiments:
# [1] = clinical trials
# COX-2 and COX-1 = conditions: for selectivity for COX-1 and COX-2 (in words): conventional 1st generation NSAIDs; for ratio COX-2 IC50 divided by COX-1 IC50: in vitro, the smaller the ratio the more selective for COX-2
Compound,selectivity for COX-1 and COX-2 (in words) (COX-2 and COX-1),ratio COX-2 IC50 divided by COX-1 IC50 (COX-2 and COX-1),also measured
"Cc1ccc(-c2cc(C(F)(F)F)nn2-c2ccc(S(N)(=O)=O)cc2)cc1 [celecoxib, Celecoxib]",–,–,anti-inflammatory activity [1]: effective anti-inflammatory activity; gastrointestinal adverse effects ([1]; compared to placebo): virtually no gastrointestinal adverse effects
CC(C)Cc1ccc(C(C)C(=O)O)cc1 (stereo not shown) [ibuprofen],essentially non-selective,–,–
COc1ccc2c(c1)c(CC(=O)O)c(C)n2C(=O)c1ccc(Cl)cc1 [indomethacin],–,about 30,–
CC(C(=O)O)c1cccc(C(=O)c2ccccc2)c1 (stereo not shown) [ketoprofen],relatively COX-1 selective,–,–
COc1ccc2cc([C@H](C)C(=O)O)ccc2c1 [naproxen],essentially non-selective,–,–
CN1C(C(=O)Nc2ccccn2)=C(O)c2ccccc2S1(=O)=O [piroxicam],–,about 30,–
